Experiments:
[1] = target: T1, PAK6 (Homo sapiens, UniProt Q9NQU5); assay: Millipore kinase panel; type: biochemical; settings: read-out: % Control
T1 construct: purchased Millipore KinaseProfiler (kinases); Cerep (receptors and ion channels)

[2] = target: T2, ALK (Homo sapiens, UniProt Q9UM73); assay: Millipore kinase panel; type: biochemical; settings: read-out: % Control
T2 construct: purchased Millipore KinaseProfiler (kinases); Cerep (receptors and ion channels)

[3] = target: T3, PKCZETA (Homo sapiens, UniProt Q05513); assay: Millipore kinase panel; type: biochemical; settings: read-out: % Control
T3 construct: purchased Millipore KinaseProfiler (kinases); Cerep (receptors and ion channels)

[4] = target: T4, ALK4 (Homo sapiens, UniProt P36896); assay: Millipore kinase panel; type: biochemical; settings: read-out: % Control
T4 construct: purchased Millipore KinaseProfiler (kinases); Cerep (receptors and ion channels)

[5] = target: T5, HIPK2 (Homo sapiens, UniProt Q9H2X6); assay: Millipore kinase panel; type: biochemical; settings: read-out: % Control
T5 construct: purchased Millipore KinaseProfiler (kinases); Cerep (receptors and ion channels)

[6] = target: T6, PIM-2 (Homo sapiens, UniProt Q9P1W9); assay: Millipore kinase panel; type: biochemical; settings: read-out: % Control
T6 construct: purchased Millipore KinaseProfiler (kinases); Cerep (receptors and ion channels)

[7] = target: T7, MRCKALPHA (Homo sapiens, UniProt Q5VT25); assay: Millipore kinase panel; type: biochemical; settings: read-out: % Control
T7 construct: purchased Millipore KinaseProfiler (kinases); Cerep (receptors and ion channels)

[8] = target: T8, norepinephrine transporter (h) (Homo sapiens, UniProt P23975); assay: CEREP binding panel; settings: antagonist radioligand, read-out: % Inhibition of Control Specific Binding
T8 construct: purchased Millipore KinaseProfiler (kinases); Cerep (receptors and ion channels)

[9] = target: T9, NK2 (h) (Homo sapiens, UniProt P21452); assay: CEREP binding panel; settings: agonist radioligand, read-out: % Inhibition of Control Specific Binding
T9 construct: purchased Millipore KinaseProfiler (kinases); Cerep (receptors and ion channels)

[10] = target: T10, TEC ACTIVATED (Homo sapiens, UniProt P42680); assay: Millipore kinase panel; type: biochemical; settings: read-out: % Control
T10 construct: purchased Millipore KinaseProfiler (kinases); Cerep (receptors and ion channels)
T10 sequence (P42680 whole entry): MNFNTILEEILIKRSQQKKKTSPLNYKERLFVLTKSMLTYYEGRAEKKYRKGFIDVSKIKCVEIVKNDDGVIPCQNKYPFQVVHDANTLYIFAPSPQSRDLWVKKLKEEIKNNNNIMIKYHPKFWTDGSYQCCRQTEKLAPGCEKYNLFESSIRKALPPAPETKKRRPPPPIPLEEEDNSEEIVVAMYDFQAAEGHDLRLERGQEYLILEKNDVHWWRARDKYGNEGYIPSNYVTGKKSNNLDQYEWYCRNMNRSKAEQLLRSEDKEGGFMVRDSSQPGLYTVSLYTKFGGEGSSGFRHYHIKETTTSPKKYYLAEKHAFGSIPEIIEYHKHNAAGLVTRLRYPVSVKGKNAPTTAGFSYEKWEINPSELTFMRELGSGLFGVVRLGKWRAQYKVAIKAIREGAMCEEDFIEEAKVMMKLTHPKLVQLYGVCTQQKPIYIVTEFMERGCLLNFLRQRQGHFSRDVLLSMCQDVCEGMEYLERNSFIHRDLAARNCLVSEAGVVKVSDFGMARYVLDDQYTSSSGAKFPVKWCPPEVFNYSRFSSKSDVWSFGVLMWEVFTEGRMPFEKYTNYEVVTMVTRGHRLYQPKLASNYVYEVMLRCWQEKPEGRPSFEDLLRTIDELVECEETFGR

[11] = target: T11, MT1 (ML1A) (h) (Homo sapiens, UniProt P48039); assay: CEREP binding panel; settings: agonist radioligand, read-out: % Inhibition of Control Specific Binding
T11 construct: purchased Millipore KinaseProfiler (kinases); Cerep (receptors and ion channels)

[12] = target: T12, H1 (h) (Homo sapiens, UniProt P35367); assay: CEREP binding panel; settings: antagonist radioligand, read-out: % Inhibition of Control Specific Binding
T12 construct: purchased Millipore KinaseProfiler (kinases); Cerep (receptors and ion channels)

[13] = target: T13, FMS (Homo sapiens, UniProt P07333); assay: Millipore kinase panel; type: biochemical; settings: read-out: % Control
T13 construct: purchased Millipore KinaseProfiler (kinases); Cerep (receptors and ion channels)
T13 sequence (P07333 20-972): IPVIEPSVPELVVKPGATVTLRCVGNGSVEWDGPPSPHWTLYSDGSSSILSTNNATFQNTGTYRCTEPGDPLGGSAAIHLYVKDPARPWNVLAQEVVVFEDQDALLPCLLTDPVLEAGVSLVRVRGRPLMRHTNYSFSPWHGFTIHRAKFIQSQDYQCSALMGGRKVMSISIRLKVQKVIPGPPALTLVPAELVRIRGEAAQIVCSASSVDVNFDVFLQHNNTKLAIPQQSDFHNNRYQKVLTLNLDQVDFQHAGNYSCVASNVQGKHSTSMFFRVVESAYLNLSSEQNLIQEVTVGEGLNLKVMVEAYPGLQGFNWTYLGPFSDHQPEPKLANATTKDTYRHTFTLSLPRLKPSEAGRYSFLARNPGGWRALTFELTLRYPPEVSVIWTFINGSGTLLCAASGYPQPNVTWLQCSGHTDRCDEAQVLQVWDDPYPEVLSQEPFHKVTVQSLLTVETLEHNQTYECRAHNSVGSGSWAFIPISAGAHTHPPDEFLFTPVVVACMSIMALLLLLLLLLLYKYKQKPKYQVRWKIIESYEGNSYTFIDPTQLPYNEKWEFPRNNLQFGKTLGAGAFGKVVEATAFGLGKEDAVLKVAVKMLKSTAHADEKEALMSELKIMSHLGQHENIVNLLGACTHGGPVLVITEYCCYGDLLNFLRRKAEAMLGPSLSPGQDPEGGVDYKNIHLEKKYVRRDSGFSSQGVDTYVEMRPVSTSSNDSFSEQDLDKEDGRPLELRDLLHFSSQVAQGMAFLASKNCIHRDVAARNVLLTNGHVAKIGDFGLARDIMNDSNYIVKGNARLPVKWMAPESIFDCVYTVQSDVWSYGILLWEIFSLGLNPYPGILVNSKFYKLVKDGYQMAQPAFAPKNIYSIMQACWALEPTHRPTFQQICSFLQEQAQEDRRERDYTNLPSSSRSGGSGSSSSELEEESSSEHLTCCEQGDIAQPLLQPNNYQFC

[14] = tested on: PI3 KINASE (P110A/P85A); assay: Millipore kinase panel; type: biochemical; settings: 1 μM, ATP at Km
[15] = target: T14, RON (Homo sapiens, UniProt Q04912); assay: Millipore kinase panel; type: biochemical; settings: read-out: % Control
T14 construct: purchased Millipore KinaseProfiler (kinases); Cerep (receptors and ion channels)

[16] = target: T15, PKG1ALPHA (Homo sapiens, UniProt Q13976); assay: Millipore kinase panel; type: biochemical; settings: read-out: % Control
T15 construct: purchased Millipore KinaseProfiler (kinases); Cerep (receptors and ion channels)

[17] = target: T16, D1 (h) (Homo sapiens, UniProt P21728); assay: CEREP binding panel; settings: antagonist radioligand, read-out: % Inhibition of Control Specific Binding
T16 construct: purchased Millipore KinaseProfiler (kinases); Cerep (receptors and ion channels)
T16 sequence (P21728 whole entry): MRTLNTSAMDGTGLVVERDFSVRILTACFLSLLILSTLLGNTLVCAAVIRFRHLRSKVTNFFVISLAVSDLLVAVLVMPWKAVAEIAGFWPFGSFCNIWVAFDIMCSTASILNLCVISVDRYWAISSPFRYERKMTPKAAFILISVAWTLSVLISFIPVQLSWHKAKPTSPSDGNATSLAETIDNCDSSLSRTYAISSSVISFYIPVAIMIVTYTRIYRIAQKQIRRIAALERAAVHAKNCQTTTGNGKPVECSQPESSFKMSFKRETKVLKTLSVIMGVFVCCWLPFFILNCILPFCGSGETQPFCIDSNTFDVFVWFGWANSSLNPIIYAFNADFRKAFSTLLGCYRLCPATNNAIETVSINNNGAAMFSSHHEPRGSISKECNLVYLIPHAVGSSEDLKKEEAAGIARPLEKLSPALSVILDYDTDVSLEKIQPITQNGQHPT

[18] = target: T17, MNK2 (Homo sapiens, UniProt Q9HBH9); assay: Millipore kinase panel; type: biochemical; settings: read-out: % Control
T17 construct: purchased Millipore KinaseProfiler (kinases); Cerep (receptors and ion channels)

[19] = target: T18, GRK6 (Homo sapiens, UniProt P43250); assay: Millipore kinase panel; type: biochemical; settings: read-out: % Control
T18 construct: purchased Millipore KinaseProfiler (kinases); Cerep (receptors and ion channels)

[20] = target: T19, MSK1 (Homo sapiens, UniProt O75582); assay: Millipore kinase panel; type: biochemical; settings: read-out: % Control
T19 construct: purchased Millipore KinaseProfiler (kinases); Cerep (receptors and ion channels)

[21] = target: T20, GRK7 (Homo sapiens, UniProt Q8WTQ7); assay: Millipore kinase panel; type: biochemical; settings: read-out: % Control
T20 construct: purchased Millipore KinaseProfiler (kinases); Cerep (receptors and ion channels)
T20 sequence (Q8WTQ7 whole entry): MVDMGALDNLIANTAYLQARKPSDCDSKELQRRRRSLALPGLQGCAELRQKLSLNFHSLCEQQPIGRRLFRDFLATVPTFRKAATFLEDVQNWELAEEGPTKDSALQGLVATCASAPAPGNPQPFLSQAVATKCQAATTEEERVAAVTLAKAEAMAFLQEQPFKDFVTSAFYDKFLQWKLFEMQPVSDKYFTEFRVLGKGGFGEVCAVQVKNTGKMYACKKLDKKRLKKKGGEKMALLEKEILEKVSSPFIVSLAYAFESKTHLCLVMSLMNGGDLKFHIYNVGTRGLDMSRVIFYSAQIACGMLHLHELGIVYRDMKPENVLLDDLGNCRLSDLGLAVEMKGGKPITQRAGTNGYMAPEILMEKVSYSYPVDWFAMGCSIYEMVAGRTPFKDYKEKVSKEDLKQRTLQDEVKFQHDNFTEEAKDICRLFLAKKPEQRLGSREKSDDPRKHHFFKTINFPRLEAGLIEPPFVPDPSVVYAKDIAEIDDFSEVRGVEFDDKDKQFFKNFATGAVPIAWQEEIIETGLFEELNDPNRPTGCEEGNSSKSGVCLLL

[22] = target: T21, WNK2 (Homo sapiens, UniProt Q9Y3S1); assay: Millipore kinase panel; type: biochemical; settings: read-out: % Control
T21 construct: purchased Millipore KinaseProfiler (kinases); Cerep (receptors and ion channels)

[23] = target: T22, MUSK (Homo sapiens, UniProt O15146); assay: Millipore kinase panel; type: biochemical; settings: read-out: % Control
T22 construct: purchased Millipore KinaseProfiler (kinases); Cerep (receptors and ion channels)

[24] = target: T23, PDGFRBETA (Homo sapiens, UniProt P09619); assay: Millipore kinase panel; type: biochemical; settings: read-out: % Control
T23 construct: purchased Millipore KinaseProfiler (kinases); Cerep (receptors and ion channels)

[25] = target: T24, Y2 (h) (Homo sapiens, UniProt P49146); assay: CEREP binding panel; settings: agonist radioligand, read-out: % Inhibition of Control Specific Binding
T24 construct: purchased Millipore KinaseProfiler (kinases); Cerep (receptors and ion channels)

[26] = target: T25, AURKB (Homo sapiens, UniProt Q96GD4); assay: Millipore kinase panel; type: biochemical; settings: read-out: % Control
T25 construct: purchased Millipore KinaseProfiler (kinases); Cerep (receptors and ion channels)

[27] = target: T26, 5-HT2A (h) (Homo sapiens, UniProt P28223); assay: CEREP binding panel; settings: antagonist radioligand, read-out: % Inhibition of Control Specific Binding
T26 construct: purchased Millipore KinaseProfiler (kinases); Cerep (receptors and ion channels)

[28] = target: T27, ABL (Homo sapiens, UniProt P00519); assay: Millipore kinase panel; type: biochemical; settings: read-out: % Control
T27 construct: purchased Millipore KinaseProfiler (kinases); Cerep (receptors and ion channels)

[29] = target: T28, CDK5/P25 (Homo sapiens, UniProt Q00535); assay: Millipore kinase panel; type: biochemical; settings: read-out: % Control
T28 construct: purchased Millipore KinaseProfiler (kinases); Cerep (receptors and ion channels)

[30] = target: T29, YES (Homo sapiens, UniProt P07947); assay: Millipore kinase panel; type: biochemical; settings: read-out: % Control
T29 construct: purchased Millipore KinaseProfiler (kinases); Cerep (receptors and ion channels)

[31] = target: T30, PKA (Homo sapiens, UniProt P17612); assay: Millipore kinase panel; type: biochemical; settings: read-out: % Control
T30 construct: purchased Millipore KinaseProfiler (kinases); Cerep (receptors and ion channels)

[32] = target: T31, KDR (Homo sapiens, UniProt P35968); assay: Millipore kinase panel; type: biochemical; settings: read-out: % Control
T31 construct: purchased Millipore KinaseProfiler (kinases); Cerep (receptors and ion channels)

[33] = target: T32, EPHB1 (Homo sapiens, UniProt P54762); assay: Millipore kinase panel; type: biochemical; settings: read-out: % Control
T32 construct: purchased Millipore KinaseProfiler (kinases); Cerep (receptors and ion channels)

[34] = target: T33, JNK1ALPHA1 (Homo sapiens, UniProt P45983); assay: Millipore kinase panel; type: biochemical; settings: read-out: % Control
T33 construct: purchased Millipore KinaseProfiler (kinases); Cerep (receptors and ion channels)
T33 sequence (P45983 1-384 isoform P45983-2): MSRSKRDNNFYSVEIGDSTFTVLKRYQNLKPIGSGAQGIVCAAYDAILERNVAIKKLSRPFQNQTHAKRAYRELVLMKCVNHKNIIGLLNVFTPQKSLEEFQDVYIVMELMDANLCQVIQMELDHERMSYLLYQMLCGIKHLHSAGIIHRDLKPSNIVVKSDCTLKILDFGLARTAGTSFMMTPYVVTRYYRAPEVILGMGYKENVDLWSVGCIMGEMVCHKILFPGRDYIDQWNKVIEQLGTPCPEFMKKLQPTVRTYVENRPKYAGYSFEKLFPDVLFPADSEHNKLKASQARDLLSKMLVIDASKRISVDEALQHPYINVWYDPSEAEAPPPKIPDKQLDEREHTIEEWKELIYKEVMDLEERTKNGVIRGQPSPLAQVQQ

[35] = target: T34, TRKB (Homo sapiens, UniProt Q16620); assay: Millipore kinase panel; type: biochemical; settings: read-out: % Control
T34 construct: purchased Millipore KinaseProfiler (kinases); Cerep (receptors and ion channels)
T34 sequence (Q16620 32-822): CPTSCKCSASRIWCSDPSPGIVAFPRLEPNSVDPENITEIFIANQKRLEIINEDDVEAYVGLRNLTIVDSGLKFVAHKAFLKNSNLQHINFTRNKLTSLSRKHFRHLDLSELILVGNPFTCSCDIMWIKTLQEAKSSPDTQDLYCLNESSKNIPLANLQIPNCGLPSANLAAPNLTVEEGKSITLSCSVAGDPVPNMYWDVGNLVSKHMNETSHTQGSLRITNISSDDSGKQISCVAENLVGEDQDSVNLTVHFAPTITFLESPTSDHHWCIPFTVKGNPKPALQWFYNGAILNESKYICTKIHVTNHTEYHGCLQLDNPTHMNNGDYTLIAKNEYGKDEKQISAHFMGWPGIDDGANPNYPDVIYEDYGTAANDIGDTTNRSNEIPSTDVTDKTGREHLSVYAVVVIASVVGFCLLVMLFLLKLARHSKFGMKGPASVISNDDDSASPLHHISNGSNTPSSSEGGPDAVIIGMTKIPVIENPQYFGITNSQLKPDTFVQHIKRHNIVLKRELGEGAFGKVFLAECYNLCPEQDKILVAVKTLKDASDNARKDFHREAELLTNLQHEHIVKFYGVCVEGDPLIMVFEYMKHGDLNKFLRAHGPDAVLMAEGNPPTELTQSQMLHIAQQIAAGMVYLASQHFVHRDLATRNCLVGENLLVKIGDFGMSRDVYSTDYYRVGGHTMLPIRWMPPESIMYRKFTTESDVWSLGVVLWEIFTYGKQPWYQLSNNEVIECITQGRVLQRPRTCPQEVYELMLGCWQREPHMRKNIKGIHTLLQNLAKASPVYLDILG

[36] = target: T35, VRK2 (Homo sapiens, UniProt Q86Y07); assay: Millipore kinase panel; type: biochemical; settings: read-out: % Control
T35 construct: purchased Millipore KinaseProfiler (kinases); Cerep (receptors and ion channels)

[37] = target: T36, MST3 (Homo sapiens, UniProt Q9Y6E0); assay: Millipore kinase panel; type: biochemical; settings: read-out: % Control
T36 construct: purchased Millipore KinaseProfiler (kinases); Cerep (receptors and ion channels)

[38] = target: T37, IRR (Homo sapiens, UniProt P14616); assay: Millipore kinase panel; type: biochemical; settings: read-out: % Control
T37 construct: purchased Millipore KinaseProfiler (kinases); Cerep (receptors and ion channels)

[39] = target: T38, NTS1 (NT1) (h) (Homo sapiens, UniProt P30989); assay: CEREP binding panel; settings: agonist radioligand, read-out: % Inhibition of Control Specific Binding
T38 construct: purchased Millipore KinaseProfiler (kinases); Cerep (receptors and ion channels)

[40] = target: T39, AXL (Homo sapiens, UniProt P30530); assay: Millipore kinase panel; type: biochemical; settings: read-out: % Control
T39 construct: purchased Millipore KinaseProfiler (kinases); Cerep (receptors and ion channels)
T39 sequence (P30530 26-894): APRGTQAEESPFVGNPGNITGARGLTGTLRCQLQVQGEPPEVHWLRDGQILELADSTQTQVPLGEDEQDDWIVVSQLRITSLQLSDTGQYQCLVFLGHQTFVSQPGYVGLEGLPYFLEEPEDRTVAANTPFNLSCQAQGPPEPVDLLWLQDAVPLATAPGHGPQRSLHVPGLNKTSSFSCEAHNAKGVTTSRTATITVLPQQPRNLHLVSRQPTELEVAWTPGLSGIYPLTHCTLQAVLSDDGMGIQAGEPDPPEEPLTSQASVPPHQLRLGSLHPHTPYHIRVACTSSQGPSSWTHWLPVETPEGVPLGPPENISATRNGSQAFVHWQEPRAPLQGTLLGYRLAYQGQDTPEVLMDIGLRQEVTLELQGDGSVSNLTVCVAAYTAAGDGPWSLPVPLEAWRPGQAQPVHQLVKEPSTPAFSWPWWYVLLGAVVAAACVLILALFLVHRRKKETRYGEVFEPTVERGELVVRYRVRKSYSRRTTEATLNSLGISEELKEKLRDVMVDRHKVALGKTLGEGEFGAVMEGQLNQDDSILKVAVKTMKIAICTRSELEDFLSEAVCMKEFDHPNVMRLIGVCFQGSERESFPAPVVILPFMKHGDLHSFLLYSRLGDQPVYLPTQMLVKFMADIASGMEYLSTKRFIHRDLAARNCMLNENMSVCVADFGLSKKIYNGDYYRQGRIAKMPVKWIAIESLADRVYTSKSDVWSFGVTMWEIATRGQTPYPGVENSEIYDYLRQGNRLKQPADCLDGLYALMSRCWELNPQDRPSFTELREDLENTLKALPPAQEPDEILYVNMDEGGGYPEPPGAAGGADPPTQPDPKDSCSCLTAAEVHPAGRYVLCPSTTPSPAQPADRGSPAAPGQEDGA

[41] = target: T40, HIPK1 (Homo sapiens, UniProt Q86Z02); assay: Millipore kinase panel; type: biochemical; settings: read-out: % Control
T40 construct: purchased Millipore KinaseProfiler (kinases); Cerep (receptors and ion channels)

[42] = target: T41, MAPKAP-K2 (Homo sapiens, UniProt P49137); assay: Millipore kinase panel; type: biochemical; settings: read-out: % Control
T41 construct: purchased Millipore KinaseProfiler (kinases); Cerep (receptors and ion channels)
T41 sequence (P49137 whole entry): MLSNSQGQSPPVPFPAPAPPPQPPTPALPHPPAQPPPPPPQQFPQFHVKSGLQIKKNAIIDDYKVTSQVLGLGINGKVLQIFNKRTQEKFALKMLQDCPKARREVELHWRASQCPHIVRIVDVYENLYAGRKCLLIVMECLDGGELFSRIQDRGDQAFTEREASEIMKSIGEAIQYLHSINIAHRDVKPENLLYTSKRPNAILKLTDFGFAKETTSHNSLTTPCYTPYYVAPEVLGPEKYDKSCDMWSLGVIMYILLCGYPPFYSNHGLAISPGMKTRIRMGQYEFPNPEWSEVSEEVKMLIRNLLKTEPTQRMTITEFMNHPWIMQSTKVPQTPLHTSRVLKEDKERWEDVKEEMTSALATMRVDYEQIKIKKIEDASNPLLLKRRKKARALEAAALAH

[43] = target: T42, GCK (Homo sapiens, UniProt Q12851); assay: Millipore kinase panel; type: biochemical; settings: read-out: % Control
T42 construct: purchased Millipore KinaseProfiler (kinases); Cerep (receptors and ion channels)

SMILES: Cn1cc(-c2ccc(-c3cncc(Cl)c3N3CCC4(CCNC4=O)CC3)cc2)cn1 [Compound 74, 8-(3-Chloro-5-(4-(1-methyl-1H-pyrazol-4-yl)phenyl)pyridin-4-yl)-2,8-diazaspiro[4.5]decan-1-one]
- remaining activity at 1 µM [1]: -2%
- remaining activity at 1 µM [2]: -22%
- remaining activity at 1 µM [3]: -7%
- remaining activity at 1 µM [4]: -12%
- remaining activity at 1 µM [5]: -12%
- remaining activity at 1 µM [6]: 13%
- remaining activity at 1 µM [7]: -4%
- inhibition at 10 µM [8]: 14%
- inhibition at 10 µM [9]: -17%
- remaining activity at 1 µM [10]: 14%
- inhibition at 10 µM [11]: 34%
- inhibition at 10 µM [12]: 16%
- remaining activity at 1 µM [13]: -21%
- % Control [14]: -1%
- remaining activity at 1 µM [15]: -9%
- remaining activity at 1 µM [16]: 0%
- inhibition at 10 µM [17]: 7%
- remaining activity at 1 µM [18]: 2%
- remaining activity at 1 µM [19]: -1%
- remaining activity at 1 µM [20]: 5%
- remaining activity at 1 µM [21]: 7%
- remaining activity at 1 µM [22]: 0%
- remaining activity at 1 µM [23]: 6%
- remaining activity at 1 µM [24]: -6%
- inhibition at 10 µM [25]: -2%
- remaining activity at 1 µM [26]: -8%
- inhibition at 10 µM [27]: 1%
- remaining activity at 1 µM [28]: -5%
- remaining activity at 1 µM [29]: -21%
- remaining activity at 1 µM [30]: 7%
- remaining activity at 1 µM [31]: 24%
- remaining activity at 1 µM [32]: 10%
- remaining activity at 1 µM [33]: -7%
- remaining activity at 1 µM [34]: -9%
- remaining activity at 1 µM [35]: -25%
- remaining activity at 1 µM [36]: -2%
- remaining activity at 1 µM [37]: -7%
- remaining activity at 1 µM [38]: 3%
- inhibition at 10 µM [39]: -8%
- remaining activity at 1 µM [40]: -18%
- remaining activity at 1 µM [41]: 10%
- remaining activity at 1 µM [42]: 0%
- remaining activity at 1 µM [43]: -28%

SMILES: O=C1NCCC12CCN(c1c(Cl)cncc1-c1ccc(N3CCOCC3)cc1)CC2 [Compound 44, 8-(3-Chloro-5-(4-morpholin-4-ylphenyl)pyridin-4-yl)-2,8-diazaspiro[4.5]decan-1-one]
- remaining activity at 1 µM [1]: 13%
- remaining activity at 1 µM [2]: -6%
- remaining activity at 1 µM [3]: 5%
- remaining activity at 1 µM [4]: 14%
- remaining activity at 1 µM [5]: 2%
- remaining activity at 1 µM [6]: 7%
- remaining activity at 1 µM [7]: 11%
- inhibition at 10 µM [8]: -15%
- inhibition at 10 µM [9]: 11%
- remaining activity at 1 µM [10]: 4%
- inhibition at 10 µM [11]: 17%
- inhibition at 10 µM [12]: -5%
- remaining activity at 1 µM [13]: -39%
- % Control [14]: 1%
- remaining activity at 1 µM [15]: 13%
- remaining activity at 1 µM [16]: 8%
- inhibition at 10 µM [17]: 2%
- remaining activity at 1 µM [18]: 2%
- remaining activity at 1 µM [19]: -1%
- remaining activity at 1 µM [20]: 18%
- remaining activity at 1 µM [21]: -2%
- remaining activity at 1 µM [22]: -4%
- remaining activity at 1 µM [23]: 10%
- remaining activity at 1 µM [24]: 13%
- inhibition at 10 µM [25]: -8%
- remaining activity at 1 µM [26]: -1%
- inhibition at 10 µM [27]: -1%
- remaining activity at 1 µM [28]: 4%
- remaining activity at 1 µM [29]: 0%
- remaining activity at 1 µM [30]: -11%
- remaining activity at 1 µM [31]: 5%
- remaining activity at 1 µM [32]: 21%
- remaining activity at 1 µM [33]: -1%
- remaining activity at 1 µM [34]: 0%
- remaining activity at 1 µM [35]: 2%
- remaining activity at 1 µM [36]: -5%
- remaining activity at 1 µM [37]: 34%
- remaining activity at 1 µM [38]: 1%
- inhibition at 10 µM [39]: -4%
- remaining activity at 1 µM [40]: -12%
- remaining activity at 1 µM [41]: 7%
- remaining activity at 1 µM [42]: 0%
- remaining activity at 1 µM [43]: -9%

Reference: paper PMC4767141, “Discovery of Potent, Orally Bioavailable, Small-Molecule Inhibitors of WNT Signaling from a Cell-Based Pathway Screen” (Journal of Medicinal Chemistry, 2015)
